Assay results published in patent US20210338782A1, “STORAGE STABLE SOMATOSTATIN-DOPAMINE CHIMERIC COMPOUNDS AND SALT FORMS THEREOF” (Cydan II, Inc., priority 2019, published 2021).
Entries after “also recorded” stand apart in the source; their conditions may differ.

Assays:
[1] = Thermostability of alternative salt forms of lanreotide and TBR-760 (UPLC); format: physicochemical; settings: for compound degraded: 4 weeks at 60° C. and ambient humidity; for thermostability in words: increasing temperature and humidity (25° C./60% RH, 40° C./75% RH, 60° C.) up to 4 weeks
Procedure: Each TBR-760 salt was further evaluated for thermolytic stability over time by setting up three different exposure conditions (25° C. at 60% relative humidity (RH); 40° C. at 75% RH; or 60° C. with open and closed container systems (open dish/closed dish). Approximately 50 mg of each salt form was weighed in a nitrogen-flushed glove box for use in the studies. All samples were stored at −20° C. in a good laboratory practice (GLP) freezer both before and after exposure to the indicated conditions.
The stability of each salt form was assessed by monitoring the post-exposure drug peak purity and by evaluating the post-exposure visual appearance of the salt. The samples were removed from the exposure conditions and allowed to equilibrate to ambient conditions for 15-20 mins. An appropriate amount of each sample was weighed for analysis and dissolved in diluent (deionized water containing 0.1% TFA) to obtain a stock concentration of 1 mg/mL. The stock solution was then diluted to 0.125 mg/mL in an HPLC vial using diluent and the samples were run on a Waters Acquity UPLC system using the parameters shown in Table 4.
We conducted thermostability studies of lanreotide acetate substantially as described in Example 6. These experiments confirmed that lanreotide acetate is […] when exposed to increasing temperature and humidity conditions over time (FIG. 45). […] (FIG. 45). This degree of thermal and humidity instability is disfavored for a pharmaceutical agent, particularly one intended for patient self-administration at home.
To determine whether a thermostable salt form of TBR-760 could be manufactured, a salt exchange was performed as described in Example 1 to generate bromide and chloride salts of TBR-760. Lanreotide bromide and lanreotide chloride salts were also generated and assessed for thermostability to evaluate the effect of the salt form on compound stability and to compare stability of lanreotide and TBR-760 of each salt.
UPLC assays performed as described in Example 6 were further used to determine the number of degradants—and thus the number of impurities—in each sample. Results showing the purity assessment of each sample following thermostability studies are shown in FIGS. 48A-48B (lanreotide and TBR-760 acetate salts), 49A-49B (lanreotide and TBR-760 bromide salts), and 50A-50B (lanreotide and TBR-760 chloride salts).

[2] = Photostability of alternative salt forms of lanreotide and TBR-760; format: physicochemical; settings: 1.2 million lux hours visible light or 200 watt hours/square meter UV light
Description: In order to evaluate the light sensitivity and stability of TBR-760 chimeric peptide salts, all five salt forms were exposed to ultraviolet (UV) and visible light according to International Council for Harmonisation of Technical Requirements for Pharmaceuticals for Human Use (ICH) guideline Q1B for photostability testing. In brief, a Caron 6540-1 photostability chamber unit with separate UV and light chambers was used for the studies. Visible light exposure was 1.2 million lux hours and UV exposure was 200 watt hours/square meter.
Photostability of lanreotide acetate, lanreotide bromide, lanreotide chloride, TBR-760 acetate, TBR-760 bromide and TBR760 chloride was tested according to the methods of Example 7. Four samples were prepared for each salt form: one control for each of the UV and visible light exposure conditions (controls isolated from light) and one sample for exposure to each of the UV and visible light conditions. For each sample, 2-5 mg of the salt was weighed into 3 mL clear serum vials and stoppered. Vials containing control samples were wrapped in aluminum foil.
Following exposure to visible and UV light, all lanreotide and TBR-760 salts were analyzed by UPLC as described in Example 7.

[3] = listed as hydrobromide salt of TBR-760
[4] = listed as lanreotide hydrobromide

| Structure (SMILES) | compound degraded [1] | thermostability in words [1, 3] | photostability in words (UPLC purity) [2] | visible appearance after exposure to visible and UV light ([2]; versus control) | photostability in words (UPLC purity) [2, 3] | thermostability in words [1, 4] | photostability in words (UPLC purity) [2, 4] | thermostability in words [1] |
| --- | --- | --- | --- | --- | --- | --- | --- | --- |
| CCCN1C[C@H](CSCC(=O)NCCCC[C@@H](NC(=O)CSC[C@@H]2C[C@@H]3c4cccc5[nH]cc(c45)C[C@H]3N(CCC)C2)C(=O)N[C@H]2CSSC[C@@H](C(=O)N[C@H](C(N)=O)[C@@H](C)O)NC(=O)[C@H](CC)NC(=O)[C@H](CCCCN)NC(=O)[C@@H](Cc3c[nH]c4ccccc34)NC(=O)[C@H](Cc3ccc(O)cc3)NC2=O)C[C@@H]2c3cccc4[nH]cc(c34)C[C@H]21 [TBR-760 bromide, Dop2-D-Lys(Dop2)-cyclo[Cys-Tyr-D-Trp-Lys-Abu-Cys]-Thr-NH2] | more than 23% | significantly degraded | greater loss of purity than TBR-760 acetate or TBR-760 chloride | did not visibly change | significantly degraded |  |  |  |
| CC(C)[C@@H]1NC(=O)[C@H](CCCCN)NC(=O)[C@@H](Cc2c[nH]c3ccccc23)NC(=O)[C@H](Cc2ccc(O)cc2)NC(=O)[C@@H](NC(=O)[C@H](N)Cc2ccc3ccccc3c2)CSSC[C@@H](C(=O)N[C@H](C(N)=O)[C@@H](C)O)NC1=O [lanreotide bromide, lanreotide, reference compound] | more than 7% |  |  |  |  | moderately stable; also recorded: less stable than lanreotide acetate | moderately stable |  |
| CC(C)[C@@H]1NC(=O)[C@H](CCCCN)NC(=O)[C@@H](Cc2c[nH]c3ccccc23)NC(=O)[C@H](Cc2ccc(O)cc2)NC(=O)[C@@H](NC(=O)[C@H](N)Cc2ccc3ccccc3c2)CSSC[C@@H](C(=O)N[C@H](C(N)=O)[C@@H](C)O)NC1=O [lanreotide acetate, lanreotide, reference compound] |  |  | stable to both visible and UV light |  |  |  |  | thermostable; also recorded: stable |
